Experimental findings from PubChem BioAssay (NCI) are described below.

Several values for one entry are separate records, joined by “and”; a condition that tells them apart may be missing. Equal entries are not always repeated.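 Cells were grown in 96-well plates and exposed to each compound for 48 hours at five concentrations; endpoints were interpolated linearly between bracketing concentrations, or set to the highest concentration if not reached. Abbreviation: GI50, concentration required for 50% inhibition of growth. At the TGI there is no net growth.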

Experiment in all cases: NCI tumour cell line growth inhibition, 48 h
Test [1] relates to OVCAR-3 ovarian.
Test [2] concerns HL-60(TB) leukemia.
In test [3] the test system is U251 CNS.
In test [4] the test system is HCC-2998 colon.
The subject of test [5] is NCI-H226 lung.
The test system of test [6] is SR leukemia.
The subject of test [7] is OVCAR-8 ovarian.
Test [8] concerns UACC-257 melanoma.
For test [9], the system named is TK-10 renal.
Test [10] deals with MDA-MB-231 breast.

For the compound `COc1cc(OC)cc(-c2ccc(-c3ccc(C(=N)N)s3)s2)c1`, the GI50 in test [1] is 1.81 µM; in [2], 1.23 µM and 0.174 µM; in [3], 0.404 µM; in test [4] it was 1.03 µM; in test [5] it was 1.61 µM; in [6] it was 0.331 µM and 0.244 µM. Moreover, the GI50 in test [7] was 1.66 µM; in [8], 1.77 µM; in [9] it was 1.84 µM; in test [10] it was 0.8 µM. Besides, the TGI in test [1] was 3.76 µM; in [2] it was 2.74 µM and 0.374 µM; in [3], 1.73 µM; in test [4], 2.58 µM; in test [5] it was 3.71 µM; in [6], 0.918 µM and 0.598 µM. In addition, the TGI was determined as 4.16 µM in [7], 3.36 µM in test [8], 3.39 µM in test [9] and 2.62 µM in test [10].
For `C[C@@H]1[C@H]2[C@H](C=C3[C@@H]4CC[C@H]5Cc6nc7c(nc6C[C@]5(C)[C@H]4C[C@@H](O)[C@@]32C)C[C@@H]2CC[C@H]3C4=C[C@@H]5O[C@@]6(CC[C@](C)(CO)O6)[C@@H](C)[C@@]5(O)[C@@]4(C)[C@H](O)C[C@@H]3[C@@]2(C)C7)O[C@]12CCC(C)(C)O2`, the GI50 was 5.1 µM in test [1]; 0.419 µM in [2]; 0.2 µM in test [3]; 16 µM in test [4]; 3.33 µM in [5]; 0.322 µM in test [6]. Moreover, the GI50 in test [7] is 10.1 µM; in [8] it was 13.9 µM; in test [9], 13.3 µM; in test [10], 0.469 µM. Also, the TGI in test [1] stood at 31.8 µM; in test [2], 7.76 µM; in test [3] it was 7.06 µM; in test [4], 56.5 µM; in test [5], 35.6 µM; in test [6], 2.9 µM. The TGI was greater than 100 µM in [7], 99.2 µM in test [8], 72.5 µM in [9] and 2.62 µM in test [10].
Turning to `Fc1c[c-]c(-c2ccccn2)c(F)c1.[CH3-].[Pt+2].c1ccc([PH+](c2ccccc2)c2ccccn2)cc1`, the GI50 was 1.44 µM in test [1]; 2.05 µM in [2]; 1.88 µM in test [3]; 1.83 µM in test [4]; 1.73 µM in [5]; 0.786 µM in [6]. The GI50 in test [7] is 2.25 µM; in test [8], 1.67 µM; in test [9], 3.59 µM; in test [10], 1.61 µM. In addition, the TGI worked out at 2.88 µM in test [1]; 7.28 µM in test [2]; 6.02 µM in [3]; 3.53 µM in [4]; 3.8 µM in test [5]; 7.05 µM in [6]. Also, the TGI in test [7] was greater than 100 µM; in test [8], 5.07 µM; in [9], 12.9 µM; in test [10], 3.31 µM.
As for `O=C(CCc1ccco1)NC1CCN(CC2(c3ccc(Cl)cc3)CCC2)CC1`, the GI50 in test [1] was 15.6 µM; in test [2], 15.5 µM; in [3], 13.1 µM; in [4], 6.02 µM; in [5], 20.8 µM; in test [6], 6.93 µM. For the same compound, the GI50 was 14.5 µM in [7], 16.3 µM in [8], 14.5 µM in test [9] and 5.79 µM in test [10]. For the same compound, the TGI was 32.4 µM in test [1]; 38.9 µM in [2]; 26.4 µM in test [3]; 19.7 µM in test [4]; 60.2 µM in test [5]; 28.7 µM in test [6]. Moreover, the TGI in test [7] was found to be 30.1 µM; in [8], 31.2 µM; in [9] it was 28.3 µM; in test [10], 20.1 µM.
With `Cc1cc(S(N)(=O)=O)c(S/C(=N\Nc2ccc([N+](=O)[O-])cc2)c2ccc(O)cc2)cc1Cl`, the GI50 is 2.06 µM in test [1]; 1.98 µM in test [2]; 2.87 µM in test [3]; 1.65 µM in test [4]; 2.67 µM in test [5]; 51.6 µM in test [6]. The GI50 was 5.72 µM in [7], 5.22 µM in [8], 2.01 µM in test [9] and 1.78 µM in test [10]. The TGI in test [1] is 4.04 µM; in test [2], greater than 100 µM; in [3], 11.1 µM; in test [4], 3.87 µM; in [5] it was 7.08 µM; in test [6], greater than 100 µM. Besides, the TGI in [7] came out at 21.7 µM; in [8] it was 19.3 µM; in test [9], 5.16 µM; in test [10] it was 4.67 µM.
In the case of `OC(COc1cccc2ccccc12)CN1CCN(c2ccc(Cl)cc2)CC1` (stereo unspecified), the GI50 in [1] is 23.8 µM; in test [2] it was greater than 100 µM; in [3], 12.6 µM; in test [4], greater than 100 µM; in [5], 13.8 µM; in test [6], greater than 100 µM. Also, the GI50 in test [7] was 15.2 µM; in [8] it was 42.3 µM; in test [9], 10.1 µM; in test [10], 19.5 µM. Besides, the TGI was 69.1 µM in [1]; greater than 100 µM in test [2]; 29.9 µM in test [3]; greater than 100 µM in [4]; 70.4 µM in test [5]; greater than 100 µM in test [6]. Further, the TGI in test [7] was 41 µM; in [8] it was greater than 100 µM; in test [9], 26.5 µM; in test [10] it was 69 µM.
For `[C-]#[O+].[C-]#[O+].[Ir].[O-]c1ccc2ccccc2c1N=Nc1ccccc1`, the TGI is 17 µM in test [1]; 7.76 µM in test [2]; 34.9 µM in test [3]; 29.4 µM in [4]; 31.9 µM in test [5]; greater than 56.4 µM in [6]. The TGI in [7] is 38.7 µM; in test [8], 14.4 µM; in test [9], 17.3 µM; in [10], 40.7 µM. In test [7], the GI50 was 13.6 µM.
Regarding `Clc1ccccc1-c1nc(-c2ccncc2)no1`, the TGI is greater than 100 µM in [1]; 29.2 µM in [2]; greater than 100 µM in test [3]; 84.8 µM in test [4]; greater than 100 µM in [5]; greater than 100 µM in [6]. Further, the TGI in test [7], in [8], in test [9] and in test [10] was greater than 100 µM each time.
